# Assay results as given in ChEMBL document CHEMBL1201862, “PubChem BioAssay data set” (2004).
# The source made the active and inactive calls.
# Tests used:
# Beta-galactosidase = Beta-galactosidase (Escherichia coli, UniProt Q8VNN2); test: PubChem AID 485352; format: functional
# [1] = molecular target: T1, Type-1 angiotensin II receptor (Homo sapiens, UniProt P30556); test: antagonism of angiotensin II type 1 receptor – cell-based, uHTS hits, selectivity assay for APJ receptor antagonist project, dose response (AID 463214); format: functional;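 note: antagonist potency against angiotensin II stimulated AT1 response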
# T1 sequence (P30556 whole entry): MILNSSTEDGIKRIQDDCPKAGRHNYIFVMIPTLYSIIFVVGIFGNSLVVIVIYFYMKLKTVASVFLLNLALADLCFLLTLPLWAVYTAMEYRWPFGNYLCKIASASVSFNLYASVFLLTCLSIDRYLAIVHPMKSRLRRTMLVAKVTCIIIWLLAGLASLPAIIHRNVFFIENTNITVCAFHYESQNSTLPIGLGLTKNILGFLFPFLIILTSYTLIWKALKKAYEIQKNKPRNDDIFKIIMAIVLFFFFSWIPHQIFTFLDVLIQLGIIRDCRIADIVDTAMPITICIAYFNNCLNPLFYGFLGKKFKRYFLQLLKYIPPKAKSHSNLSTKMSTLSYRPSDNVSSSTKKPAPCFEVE
# [2] = molecular target: Intestinal-type alkaline phosphatase (Mus musculus, UniProt P24822); test: PubChem AID 488785; format: functional
# Chain of Intestinal-type alkaline phosphatase (Mus musculus, UniProt P24822) (P24822 whole entry): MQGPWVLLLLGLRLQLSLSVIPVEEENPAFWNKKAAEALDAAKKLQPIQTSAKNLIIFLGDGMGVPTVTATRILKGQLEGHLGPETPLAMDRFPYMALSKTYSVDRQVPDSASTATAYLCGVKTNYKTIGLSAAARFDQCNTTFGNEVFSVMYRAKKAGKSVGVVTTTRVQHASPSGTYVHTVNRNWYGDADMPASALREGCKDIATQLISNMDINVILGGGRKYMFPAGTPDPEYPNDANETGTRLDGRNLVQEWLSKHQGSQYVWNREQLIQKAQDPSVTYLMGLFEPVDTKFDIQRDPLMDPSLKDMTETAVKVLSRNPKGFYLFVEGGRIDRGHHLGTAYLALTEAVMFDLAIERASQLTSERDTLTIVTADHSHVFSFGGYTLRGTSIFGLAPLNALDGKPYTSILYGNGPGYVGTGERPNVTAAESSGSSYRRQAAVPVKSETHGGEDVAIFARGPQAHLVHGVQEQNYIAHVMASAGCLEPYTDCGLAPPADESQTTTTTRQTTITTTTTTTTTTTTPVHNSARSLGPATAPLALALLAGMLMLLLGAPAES
# [3] = molecular target: T2, Alkaline phosphatase, tissue-nonspecific isozyme (Homo sapiens, UniProt P05186); test: TNAP enzyme inhibition by screening hits, dose response, selectivity assay for mouse IAP inhibitor project, biochemical, human TNAP, uHTS hits (AID 488906); format: functional
# T2 sequence (P05186 whole entry): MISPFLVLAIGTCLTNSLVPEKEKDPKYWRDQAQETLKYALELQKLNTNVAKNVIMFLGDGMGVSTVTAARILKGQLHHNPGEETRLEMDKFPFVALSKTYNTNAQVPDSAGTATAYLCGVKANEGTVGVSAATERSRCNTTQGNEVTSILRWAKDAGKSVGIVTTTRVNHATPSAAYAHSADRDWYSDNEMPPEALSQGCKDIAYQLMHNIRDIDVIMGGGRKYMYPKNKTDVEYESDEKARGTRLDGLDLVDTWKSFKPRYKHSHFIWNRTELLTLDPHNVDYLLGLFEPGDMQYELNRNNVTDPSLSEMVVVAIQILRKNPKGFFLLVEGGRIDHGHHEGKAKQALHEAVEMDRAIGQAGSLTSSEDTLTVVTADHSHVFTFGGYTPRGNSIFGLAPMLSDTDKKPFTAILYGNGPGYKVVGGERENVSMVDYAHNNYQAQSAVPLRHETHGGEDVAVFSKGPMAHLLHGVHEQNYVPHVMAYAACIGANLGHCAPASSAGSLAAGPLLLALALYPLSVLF
# [4] = molecular target: Intestinal-type alkaline phosphatase (Homo sapiens, UniProt P09923); test: inhibition of human intestinal alkaline phosphatase – biochemical, dose response (AID 488876); format: functional
# Chain of Intestinal-type alkaline phosphatase (Homo sapiens, UniProt P09923) (P09923 whole entry): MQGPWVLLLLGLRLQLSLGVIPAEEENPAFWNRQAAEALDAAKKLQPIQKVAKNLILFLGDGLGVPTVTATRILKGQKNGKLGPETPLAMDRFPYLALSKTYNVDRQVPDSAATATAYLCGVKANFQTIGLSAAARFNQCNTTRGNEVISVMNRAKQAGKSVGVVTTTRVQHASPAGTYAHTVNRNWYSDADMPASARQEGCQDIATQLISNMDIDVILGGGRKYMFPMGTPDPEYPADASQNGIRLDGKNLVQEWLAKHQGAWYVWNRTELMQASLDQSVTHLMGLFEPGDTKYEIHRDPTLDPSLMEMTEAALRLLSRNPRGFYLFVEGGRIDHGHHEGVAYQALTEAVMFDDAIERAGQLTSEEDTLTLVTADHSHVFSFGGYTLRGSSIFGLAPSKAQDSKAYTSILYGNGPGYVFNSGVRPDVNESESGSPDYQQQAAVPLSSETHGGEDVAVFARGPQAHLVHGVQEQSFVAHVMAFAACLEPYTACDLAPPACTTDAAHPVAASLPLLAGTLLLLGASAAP
# [5] = molecular target: Heat shock protein HSP 90-alpha (Homo sapiens, UniProt P07900); format: functional, organism-based
# [6] = molecular target: DNA dC->dU-editing enzyme APOBEC-3A (Homo sapiens, UniProt P31941); test: A3A deaminase inhibition for selectivity – biochemical, dose response (AID 504722); format: functional
# Chain of DNA dC->dU-editing enzyme APOBEC-3A (P31941 whole entry): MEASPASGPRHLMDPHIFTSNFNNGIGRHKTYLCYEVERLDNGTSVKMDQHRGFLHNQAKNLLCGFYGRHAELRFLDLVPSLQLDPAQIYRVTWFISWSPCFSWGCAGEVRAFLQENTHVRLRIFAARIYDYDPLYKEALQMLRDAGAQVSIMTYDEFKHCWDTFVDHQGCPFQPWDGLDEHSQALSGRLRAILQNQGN
# [7] = molecular target: DNA dC->dU-editing enzyme APOBEC-3G (Homo sapiens, UniProt Q9HC16); test: Dose Response confirmation of small molecule APOBEC3G DNA Deaminase Inhibitors via a fluorescence-based single-stranded DNA deaminase assay. [Related pubchem assays (depositor defined):AID493012, AID493028]; format: functional
# Chain of DNA dC->dU-editing enzyme APOBEC-3G (Q9HC16 whole entry): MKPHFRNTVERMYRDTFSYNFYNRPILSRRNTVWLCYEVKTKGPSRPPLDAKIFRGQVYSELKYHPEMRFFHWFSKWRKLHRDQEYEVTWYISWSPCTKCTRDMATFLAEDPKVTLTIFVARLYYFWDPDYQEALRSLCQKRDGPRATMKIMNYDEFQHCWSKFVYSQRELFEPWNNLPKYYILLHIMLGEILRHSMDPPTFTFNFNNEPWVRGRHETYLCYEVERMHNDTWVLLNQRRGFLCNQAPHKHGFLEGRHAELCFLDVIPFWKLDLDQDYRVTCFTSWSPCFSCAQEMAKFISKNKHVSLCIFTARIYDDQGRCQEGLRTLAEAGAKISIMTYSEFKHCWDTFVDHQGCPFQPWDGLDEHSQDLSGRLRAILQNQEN
# [8] = molecular target: T3, Apoptotic protease-activating factor 1 (Homo sapiens, UniProt O14727); test: activation of Apaf-1 mediated apoptosis – fluorescent, uHTS hits, dose response (AID 588554); format: functional
# T3 sequence (O14727 whole entry): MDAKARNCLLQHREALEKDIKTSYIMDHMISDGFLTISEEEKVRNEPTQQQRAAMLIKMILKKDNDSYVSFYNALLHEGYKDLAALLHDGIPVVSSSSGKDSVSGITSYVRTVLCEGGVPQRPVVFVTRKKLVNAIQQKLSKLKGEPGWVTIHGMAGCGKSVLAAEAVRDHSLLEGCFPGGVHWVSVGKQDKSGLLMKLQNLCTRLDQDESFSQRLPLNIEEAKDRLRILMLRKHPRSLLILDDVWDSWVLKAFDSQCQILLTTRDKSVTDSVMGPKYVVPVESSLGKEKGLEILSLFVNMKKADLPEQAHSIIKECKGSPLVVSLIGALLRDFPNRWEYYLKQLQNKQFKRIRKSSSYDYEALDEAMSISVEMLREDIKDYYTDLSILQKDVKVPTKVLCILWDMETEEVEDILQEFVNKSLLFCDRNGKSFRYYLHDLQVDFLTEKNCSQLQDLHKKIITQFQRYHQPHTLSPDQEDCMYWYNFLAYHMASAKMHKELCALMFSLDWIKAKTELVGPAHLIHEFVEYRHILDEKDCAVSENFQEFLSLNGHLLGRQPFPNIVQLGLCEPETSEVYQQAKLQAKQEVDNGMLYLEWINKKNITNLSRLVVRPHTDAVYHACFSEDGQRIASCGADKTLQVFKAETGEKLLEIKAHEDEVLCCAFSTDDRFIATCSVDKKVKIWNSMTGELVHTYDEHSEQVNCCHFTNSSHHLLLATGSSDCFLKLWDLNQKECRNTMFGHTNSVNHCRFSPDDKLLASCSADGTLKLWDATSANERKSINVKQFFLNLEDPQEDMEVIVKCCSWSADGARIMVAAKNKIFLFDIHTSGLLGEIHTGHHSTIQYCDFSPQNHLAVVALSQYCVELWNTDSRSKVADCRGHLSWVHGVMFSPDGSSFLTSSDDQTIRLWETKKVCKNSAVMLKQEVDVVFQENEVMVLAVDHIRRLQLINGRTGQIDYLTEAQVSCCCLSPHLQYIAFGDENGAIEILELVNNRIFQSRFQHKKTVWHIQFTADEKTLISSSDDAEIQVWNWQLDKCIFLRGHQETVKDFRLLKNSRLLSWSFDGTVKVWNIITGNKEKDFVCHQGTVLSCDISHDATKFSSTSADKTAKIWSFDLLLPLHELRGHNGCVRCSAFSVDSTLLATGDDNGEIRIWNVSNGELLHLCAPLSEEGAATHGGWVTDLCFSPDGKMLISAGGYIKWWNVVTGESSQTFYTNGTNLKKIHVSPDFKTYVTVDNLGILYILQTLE
# [9] = molecular target: T4, Carboxy-terminal domain RNA polymerase II polypeptide A small phosphatase 1 (Homo sapiens, UniProt Q9GZU7); test: CTDSP1 inhibitors, concentration-response, biochemical, absorbance readout, ultra-high-throughput screen actives (AID 540297); format: functional
# T4 sequence (Q9GZU7 whole entry): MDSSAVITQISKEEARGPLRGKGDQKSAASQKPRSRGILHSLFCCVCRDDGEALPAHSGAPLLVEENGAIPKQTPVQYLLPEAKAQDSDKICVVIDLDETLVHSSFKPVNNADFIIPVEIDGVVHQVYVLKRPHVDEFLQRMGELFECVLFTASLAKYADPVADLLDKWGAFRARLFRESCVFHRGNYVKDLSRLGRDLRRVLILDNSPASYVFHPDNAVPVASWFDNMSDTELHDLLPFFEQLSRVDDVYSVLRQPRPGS
# [10] = molecular target: T5, Small ubiquitin-related modifier 1 (Homo sapiens, UniProt P63165); test: SUMO1 protein interaction blockers, potency – biochemical, fluorescence polarization, uHTS hits, dose response (AID 624382); format: functional; conditions: read-out: IC50_Mean
# T5 sequence (P63165 whole entry): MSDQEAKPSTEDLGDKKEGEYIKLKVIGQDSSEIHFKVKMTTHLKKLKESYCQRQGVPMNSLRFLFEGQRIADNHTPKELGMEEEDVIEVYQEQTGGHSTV
# [11] = molecular target: T5, Small ubiquitin-related modifier 1; test: SUMO1 protein-protein binding blockers, potency – biochemical, FRET, dose response (AID 624383); format: functional; conditions: read-out: IC50_Mean
# Chain of Beta-galactosidase (Q8VNN2 whole entry): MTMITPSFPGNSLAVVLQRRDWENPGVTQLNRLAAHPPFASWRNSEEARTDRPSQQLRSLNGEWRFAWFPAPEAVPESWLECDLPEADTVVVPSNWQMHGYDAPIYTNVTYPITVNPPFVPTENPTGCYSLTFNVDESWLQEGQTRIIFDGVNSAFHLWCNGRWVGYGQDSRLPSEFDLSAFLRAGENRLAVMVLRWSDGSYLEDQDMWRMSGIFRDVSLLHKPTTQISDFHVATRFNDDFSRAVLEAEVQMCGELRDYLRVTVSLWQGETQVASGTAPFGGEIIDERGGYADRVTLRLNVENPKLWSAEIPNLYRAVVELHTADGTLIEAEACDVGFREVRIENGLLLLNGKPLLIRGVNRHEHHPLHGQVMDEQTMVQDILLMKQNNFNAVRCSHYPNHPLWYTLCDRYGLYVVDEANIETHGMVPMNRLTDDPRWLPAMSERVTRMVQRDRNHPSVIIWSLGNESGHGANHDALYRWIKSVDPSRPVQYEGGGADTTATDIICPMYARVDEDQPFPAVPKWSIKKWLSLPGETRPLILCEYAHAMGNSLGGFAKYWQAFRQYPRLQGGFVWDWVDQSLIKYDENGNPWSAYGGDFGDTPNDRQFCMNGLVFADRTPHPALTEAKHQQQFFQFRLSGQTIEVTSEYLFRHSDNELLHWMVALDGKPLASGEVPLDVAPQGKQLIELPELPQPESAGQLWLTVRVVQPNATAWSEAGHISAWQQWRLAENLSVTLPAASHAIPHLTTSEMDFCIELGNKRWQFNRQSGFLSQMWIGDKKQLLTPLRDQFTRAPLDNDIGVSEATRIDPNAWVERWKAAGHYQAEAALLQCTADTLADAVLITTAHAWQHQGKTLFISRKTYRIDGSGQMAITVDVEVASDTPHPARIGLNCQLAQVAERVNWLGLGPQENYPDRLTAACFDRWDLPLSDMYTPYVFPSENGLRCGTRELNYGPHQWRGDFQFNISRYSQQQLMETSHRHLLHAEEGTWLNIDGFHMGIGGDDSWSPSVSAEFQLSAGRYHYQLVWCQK
Structure (SMILES),EC50 (Beta-galactosidase),IC50 [1],IC50 [2],IC50 [3],IC50 [4],AC50 [5],IC50 [6],IC50 [7],EC50 [8],IC50 [9],IC50 [10],IC50 [11]
COc1cc(/C=C/[N+](=O)[O-])ccc1OC(=O)c1cc2ccccc2oc1=O,> 40 µM (inactive),10.4 µM (active),13 µM (active),> 100 µM (inactive),> 100 µM (inactive),1.01 µM (active),,,,,,
C=C(C)C(=O)Nc1cccc(C2=NOC3(C2)C[C@@H](C(N)=O)N(C(=O)c2cc([N+](=O)[O-])cc([N+](=O)[O-])c2C)C3)c1 (some centres not stated),,,,,,,> 100 µM (inactive),14 µM (active),10.8 µM (active),4.59 µM (active),> 66.6 µM (inactive),8.54 µM (active)
